Holding throughout (format): cell-based
For experiment [1], the target named is T1, human TLR7 (Homo sapiens, UniProt Q9NYK1).
T1 construct: host or cells: HEK-Blue cells (HEK293-derived reporter line)
T1 sequence (Q9NYK1 27-1049): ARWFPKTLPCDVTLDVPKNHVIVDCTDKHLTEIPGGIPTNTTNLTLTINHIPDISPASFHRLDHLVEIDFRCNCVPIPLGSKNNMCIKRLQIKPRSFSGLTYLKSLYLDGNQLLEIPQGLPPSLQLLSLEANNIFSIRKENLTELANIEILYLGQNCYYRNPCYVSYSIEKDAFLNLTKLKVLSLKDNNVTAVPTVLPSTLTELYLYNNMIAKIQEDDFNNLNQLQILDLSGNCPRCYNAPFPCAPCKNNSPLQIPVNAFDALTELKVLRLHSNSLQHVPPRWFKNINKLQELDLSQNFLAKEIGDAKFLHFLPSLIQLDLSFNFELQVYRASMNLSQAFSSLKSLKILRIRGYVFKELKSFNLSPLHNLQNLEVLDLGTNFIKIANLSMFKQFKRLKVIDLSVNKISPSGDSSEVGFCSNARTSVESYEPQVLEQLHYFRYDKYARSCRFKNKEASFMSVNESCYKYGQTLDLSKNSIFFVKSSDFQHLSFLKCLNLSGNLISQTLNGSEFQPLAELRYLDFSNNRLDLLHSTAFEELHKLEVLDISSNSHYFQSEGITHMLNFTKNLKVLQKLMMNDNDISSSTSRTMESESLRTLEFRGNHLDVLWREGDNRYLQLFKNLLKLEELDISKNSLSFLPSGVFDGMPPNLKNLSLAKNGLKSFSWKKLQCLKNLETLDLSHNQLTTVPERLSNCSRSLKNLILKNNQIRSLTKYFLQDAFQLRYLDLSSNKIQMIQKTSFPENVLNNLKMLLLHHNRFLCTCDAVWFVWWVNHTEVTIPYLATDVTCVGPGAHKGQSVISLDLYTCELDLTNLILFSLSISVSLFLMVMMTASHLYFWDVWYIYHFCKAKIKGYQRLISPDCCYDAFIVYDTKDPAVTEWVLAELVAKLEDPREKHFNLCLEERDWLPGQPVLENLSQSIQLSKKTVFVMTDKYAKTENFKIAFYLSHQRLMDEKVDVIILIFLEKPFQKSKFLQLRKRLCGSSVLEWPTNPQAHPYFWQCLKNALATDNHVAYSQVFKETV
The experiment can be described thus: TLR7 inhibition reporter assay (HEK-Blue cells, SEAP reporter, gardiquimod stimulation). The note with it: HEK-Blue cells overexpressing human TLR7, SEAP reporter, gardiquimod 7.5 μM. An outline of the steps: (§1)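 HEK-Blue cells overexpressing the receptor, with NF-κB/AP-1-driven SEAP, were pre-treated 30 min at room temperature with compound (0.05 nM–50 μM), then stimulated with gardiquimod 7.5 μM (TLR7), R848 15.9 μM (TLR8) or ODN2006 5 nM (TLR9). SEAP was read after 22 h at 37 °C as percent inhibition.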

Experiment [2] addresses T2, human TLR8 (Homo sapiens, UniProt Q9NR97).
T2 construct: host or cells: HEK-Blue cells (HEK293-derived reporter line)
T2 sequence (Q9NR97 27-1041): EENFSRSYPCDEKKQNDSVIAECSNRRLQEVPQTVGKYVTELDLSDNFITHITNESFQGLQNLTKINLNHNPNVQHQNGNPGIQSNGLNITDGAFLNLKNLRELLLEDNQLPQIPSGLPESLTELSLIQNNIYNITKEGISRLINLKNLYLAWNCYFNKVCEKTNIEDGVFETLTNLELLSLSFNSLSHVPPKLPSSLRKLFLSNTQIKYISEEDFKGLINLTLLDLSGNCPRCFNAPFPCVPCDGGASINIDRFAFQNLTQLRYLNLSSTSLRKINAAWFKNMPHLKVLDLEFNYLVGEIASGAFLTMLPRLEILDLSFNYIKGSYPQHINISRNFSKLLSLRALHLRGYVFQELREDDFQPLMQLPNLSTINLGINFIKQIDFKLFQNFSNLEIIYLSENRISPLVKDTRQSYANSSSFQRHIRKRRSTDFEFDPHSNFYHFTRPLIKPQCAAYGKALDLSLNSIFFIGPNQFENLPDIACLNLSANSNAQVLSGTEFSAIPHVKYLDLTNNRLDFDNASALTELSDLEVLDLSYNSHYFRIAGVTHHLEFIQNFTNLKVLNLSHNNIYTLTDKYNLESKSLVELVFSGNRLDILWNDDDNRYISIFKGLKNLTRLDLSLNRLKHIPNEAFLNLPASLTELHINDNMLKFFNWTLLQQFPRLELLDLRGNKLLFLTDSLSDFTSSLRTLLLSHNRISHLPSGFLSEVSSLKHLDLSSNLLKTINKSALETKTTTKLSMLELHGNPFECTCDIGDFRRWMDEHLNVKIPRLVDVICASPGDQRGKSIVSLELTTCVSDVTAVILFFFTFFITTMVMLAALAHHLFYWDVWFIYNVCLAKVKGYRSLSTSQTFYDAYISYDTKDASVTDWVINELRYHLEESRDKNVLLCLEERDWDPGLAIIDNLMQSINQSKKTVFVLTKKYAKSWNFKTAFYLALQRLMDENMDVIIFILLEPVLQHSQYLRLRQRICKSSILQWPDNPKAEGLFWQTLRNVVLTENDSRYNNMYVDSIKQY
The experiment is described as follows: TLR8 inhibition reporter assay (HEK-Blue cells, SEAP reporter, R848 stimulation). The conditions noted are these: HEK-Blue cells overexpressing human TLR8, SEAP reporter, R848 15.9 μM. An outline of the steps:
as §1

Experiment [3] deals with T3, human TLR9 (Homo sapiens, UniProt Q9NR96).
T3 construct: host or cells: HEK-Blue cells (HEK293-derived reporter line)
T3 sequence (Q9NR96 26-1032): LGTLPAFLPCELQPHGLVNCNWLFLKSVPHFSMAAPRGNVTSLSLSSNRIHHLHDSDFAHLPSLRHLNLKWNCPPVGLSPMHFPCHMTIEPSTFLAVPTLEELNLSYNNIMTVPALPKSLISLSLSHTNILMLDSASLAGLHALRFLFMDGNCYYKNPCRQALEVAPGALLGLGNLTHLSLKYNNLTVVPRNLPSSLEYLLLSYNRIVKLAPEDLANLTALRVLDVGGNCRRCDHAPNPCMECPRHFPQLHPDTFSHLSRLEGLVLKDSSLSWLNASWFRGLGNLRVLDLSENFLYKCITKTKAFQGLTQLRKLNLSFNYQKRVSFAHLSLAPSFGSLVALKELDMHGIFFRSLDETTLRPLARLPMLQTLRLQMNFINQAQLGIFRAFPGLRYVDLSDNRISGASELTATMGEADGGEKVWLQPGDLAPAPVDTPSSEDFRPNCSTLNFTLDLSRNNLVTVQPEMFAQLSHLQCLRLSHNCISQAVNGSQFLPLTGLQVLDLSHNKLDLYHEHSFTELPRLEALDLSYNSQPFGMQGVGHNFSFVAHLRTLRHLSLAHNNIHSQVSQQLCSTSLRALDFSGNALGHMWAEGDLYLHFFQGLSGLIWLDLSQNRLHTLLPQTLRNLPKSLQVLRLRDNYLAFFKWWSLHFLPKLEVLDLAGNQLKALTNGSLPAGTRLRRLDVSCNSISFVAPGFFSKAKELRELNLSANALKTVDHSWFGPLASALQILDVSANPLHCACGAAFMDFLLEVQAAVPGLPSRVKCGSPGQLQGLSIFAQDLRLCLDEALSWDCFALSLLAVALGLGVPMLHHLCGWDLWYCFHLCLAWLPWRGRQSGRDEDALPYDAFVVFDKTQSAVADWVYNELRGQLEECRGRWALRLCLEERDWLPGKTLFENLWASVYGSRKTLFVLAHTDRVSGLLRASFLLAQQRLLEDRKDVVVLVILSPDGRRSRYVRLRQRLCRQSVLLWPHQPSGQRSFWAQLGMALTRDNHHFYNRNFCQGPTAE
The experiment is described as follows: TLR9 inhibition reporter assay (HEK-Blue cells, SEAP reporter, ODN2006 stimulation). The conditions noted are these: HEK-Blue cells overexpressing human TLR9, SEAP reporter, ODN2006 5 nM. The gist of the method:
as §1

pIC50: −log10 of the molar value. A value given as a limit tells only on which side of the number the result lay.

Turning to `Cc1cc2nc(-c3[nH]c4ccc(C5CCNCC5)cc4c3C(C)C)c(F)cn2n1` [Example 148, 6-fluoro-5-(3-isopropyl-5-(piperidin-4-yl)-1H-indol-2-yl)-2-methylpyrazolo[1,5-a]pyrimidine], the pIC50 in experiment [1] was > 7.00; in experiment [2] it was 6.00 to 7.00; in experiment [3], 4.30 to 6.00.

Consider `Cc1cc2nc(-c3[nH]c4ccc(C5CCNCC5)cc4c3C(C)C)ccn2n1` [Example 149, 5-(3-isopropyl-5-(piperidin-4-yl)-1H-indol-2-yl)-2-methylpyrazolo[1,5-a]pyrimidine], for which the pIC50 is 6.00 to 7.00 in experiment [1], 4.30 to 6.00 in experiment [2] and 4.30 to 6.00 in experiment [3].

With `Cc1nn2ccc(-c3[nH]c4ccc(C5CCNCC5)cc4c3C(C)C)nc2c1F` [Example 150, 3-fluoro-5-(3-isopropyl-5-(piperidin-4-yl)-1H-indol-2-yl)-2-methylpyrazolo[1,5-a]pyrimidine], the pIC50 in experiment [1], in experiment [2] and in experiment [3] was 4.30 to 6.00 throughout.

With `Cc1nc2c(-c3[nH]c4ccc(C5CCNCC5)cc4c3C(C)C)ccc(C)n2n1` [Example 151, 8-(3-isopropyl-5-(piperidin-4-yl)-1H-indol-2-yl)-2,5-dimethyl-[1,2,4]triazolo[1,5-a]pyridine], the pIC50 in experiment [1], in experiment [2] and in experiment [3] was 6.00 to 7.00 each time.

Consider `Cc1ccc(-c2[nH]c3ccc(C4CCNCC4)cc3c2C(C)C)c2ncnn12` [Example 152, 8-(3-isopropyl-5-(piperidin-4-yl)-1H-indol-2-yl)-5-methyl-[1,2,4]triazolo[1,5-a]pyridine], for which the pIC50 in experiment [1] is > 7.00; in experiment [2], > 7.00; in experiment [3], 4.30 to 6.00.

As to `Cc1nc2c(-c3[nH]c4ccc(C5CCNCC5)cc4c3C(C)C)cccn2n1` [Example 153, 8-(3-isopropyl-5-(piperidin-4-yl)-1H-indol-2-yl)-2-methyl-[1,2,4]triazolo[1,5-a]pyridine], the results for the pIC50 in experiment [1], in experiment [2] and in experiment [3] were > 7.00, > 7.00 and 4.30 to 6.00, respectively.

As to `Cc1cc(-c2[nH]c3ccc(C4CCNCC4)cc3c2C(C)C)cc2ncnn12` [Example 154, 7-(3-isopropyl-5-(piperidin-4-yl)-1H-indol-2-yl)-5-methyl-[1,2,4]triazolo[1,5-a]pyridine], the values for the pIC50 in experiment [1], in experiment [2] and in experiment [3] were > 7.00, > 7.00 and 4.30 to 6.00, respectively.

Regarding `COc1cc(-c2[nH]c3ccc(C4CCNCC4)cc3c2C(C)C)cc2nc(C)nn12` [Example 155, 7-(3-isopropyl-5-(piperidin-4-yl)-1H-indol-2-yl)-5-methoxy-2-methyl-[1,2,4]triazolo [1,5-a]pyridine], the pIC50 in experiment [1] was > 7.00; in experiment [2] it was > 7.00; in experiment [3], 4.30 to 6.00.

In the case of `Cc1nc2cc(-c3[nH]c4ccc(C5CCNCC5)cc4c3C(C)C)ccn2n1` [Example 156, 7-(3-isopropyl-5-(piperidin-4-yl)-1H-indol-2-yl)-2-methyl-[1,2,4] triazolo[1,5-a]pyridine], the pIC50 in experiment [1] was > 7.00; in experiment [2], 6.00 to 7.00; in experiment [3], 6.00 to 7.00.

In the case of `CCOc1cc(-c2[nH]c3ccc(C4CCNCC4)cc3c2C(C)C)cc2ncnn12` [Example 157, 5-ethoxy-7-(3-isopropyl-5-(piperidin-4-yl)-1H-indol-2-yl)-[1,2,4]triazolo[1,5-a]pyridine], the pIC50 in experiment [1] was > 7.00; in experiment [2], > 7.00; in experiment [3], 6.00 to 7.00.

In the case of `COc1cc(-c2[nH]c3ccc(C4CCNCC4)cc3c2C(C)C)cc2ncnn12` [Example 158, 7-(3-isopropyl-5-(piperidin-4-yl)-1H-indol-2-yl)-5-methoxy-[1,2,4]triazolo[1,5-a]pyridine], the pIC50 in experiment [1] is > 7.00; in experiment [2] it was > 7.00; in experiment [3] it was 4.30 to 6.00.

As for `Cc1cn2cc(-c3[nH]c4ccc(C5CCNCC5)cc4c3C(C)C)cnc2n1` [Example 159, 6-(3-isopropyl-5-(piperidin-4-yl)-1H-indol-2-yl)-2-methylimidazo[1,2-a]pyrimidine], the pIC50 in experiment [1] is > 7.00; in experiment [2], 4.30 to 6.00; in experiment [3], 6.00 to 7.00.

Regarding `Cc1cn2c(C)cc(-c3[nH]c4ccc(C5CCNCC5)cc4c3C(C)C)cc2n1` [Example 160, 7-(3-isopropyl-5-(piperidin-4-yl)-1H-indol-2-yl)-2,5-dimethylimidazo[1,2-a]pyridine], the pIC50 in experiment [1], in experiment [2] and in experiment [3] was 6.00 to 7.00 throughout.

As to `Cc1cc(-c2[nH]c3ccc(C4CCNCC4)cc3c2C(C)C)cc2nccn12` [Example 161, 7-(3-isopropyl-5-(piperidin-4-yl)-1H-indol-2-yl)-5-methylimidazo[1,2-a]pyridine], the pIC50 in experiment [1] is 6.00 to 7.00; in experiment [2], > 7.00; in experiment [3], 6.00 to 7.00.

For the origin of these results see patent US11739098B2 (BRISTOL-MYERS SQUIBB COMPANY, priority 2017, dated 2023).
